Each compound was assayed against T1, IRAK4 (Homo sapiens, UniProt Q9NWZ3) (assay: ALE THP1 HTRF (Advanced Lipoxidation End Product THP1 Homogeneous Time Resolved Fluorescence)). Settings: THP1 cells.
T1 construct: endogenous in cells; host or cells: THP-1 cells
T1 sequence (Q9NWZ3 1-460): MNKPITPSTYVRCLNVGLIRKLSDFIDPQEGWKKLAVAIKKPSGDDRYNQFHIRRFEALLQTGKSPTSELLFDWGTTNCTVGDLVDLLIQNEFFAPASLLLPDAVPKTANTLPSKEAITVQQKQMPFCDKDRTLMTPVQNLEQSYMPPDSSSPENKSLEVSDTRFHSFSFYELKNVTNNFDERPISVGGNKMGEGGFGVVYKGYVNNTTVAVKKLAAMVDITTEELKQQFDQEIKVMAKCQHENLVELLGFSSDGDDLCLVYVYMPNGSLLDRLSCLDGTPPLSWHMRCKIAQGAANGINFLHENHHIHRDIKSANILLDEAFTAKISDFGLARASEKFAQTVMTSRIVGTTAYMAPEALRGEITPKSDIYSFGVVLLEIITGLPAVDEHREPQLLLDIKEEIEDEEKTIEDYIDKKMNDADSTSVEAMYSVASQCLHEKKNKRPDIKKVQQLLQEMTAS
Assay type: cell-based
Description: For Homogenous Time Resolved Fluorescence (HTRF) assays, a Cisbio HTRF kit was used, which included: Lysis Buffer #1 4×, Blocking Reagent #3 100×, 20× Antibody 1 (Anti-IRAK4 d2), 20× Antibody 2 (Anti-IRAK4 k), and Detection Buffer.
4× Lysis Buffer was stored at 4° C. For use as 1× Lysis buffer, the 4× solution was diluted with de-ionized water (distilled water, Gibco Cat. #15230279) and 100× Blocking Reagent in a 1:3:0.04 volume ratio.
20× Antibody Solution aliquots were stored in −80° C. and the Detection Buffer was stored in 4° C. For use as a 1× Antibody Solution, the 20× Antibody Solution aliquot was diluted with Detection Buffer in a 1:19 volume ratio.
Cells were lysed at room temperature for 45 min with shaking. A BCA protein assay was performed and normalization was conducted to the desired total protein concentration with 1× lysis buffer. Next, 1× Antibody Solutions were prepared by adding 380 μL Detection Buffer to 20 μL 20× Antibody Solution aliquots and mixing well. 1× Antibody Solutions were combined 1:1 and briefly vortexed. For control wells, 20 μL 1× anti IRAK4-k Antibody Solution was saved. The 384-well plate (ProxiPlate-384 Plus, Perkin Elmer Cat. #6008289) was loaded by adding 4 μL of the mixed Antibody Solution to empty wells using a single channel repeater. Using a multi-channel repeater, 16 μL lysate was added per well, and any bubbles that were formed were popped with 20 μL pipette tips and Kimwipe edges. In column 10, triplicates of each control was prepared. In wells A10, B10, and C10, buffer control was prepared by adding 16 μL Lysis Buffer and 4 μL Detection Buffer. In wells D10, E10, and F10, cryptate control was prepared by adding 16 μL Lysis Buffer, 2 μL Detection Buffer, and 2 μL 1× anti IRAK4-k Antibody Solution. In wells G10, H10, and I10, a negative control was prepared by adding 16 μL Lysis Buffer and 4 μL mixed Antibody Solution. The plate was sealed with a clear seal and covered with an aluminum lid. The plate was spun down at 800 g for 5 min and incubated in the dark at room temperature overnight. The next day, the plate was spun down at 800 g for 5 min. The samples were analyzed by a plate reader (Envision, PerkinElmer) using the Desnor 384 HTRF program.
`N#Cc1cnc2c(cnn2-c2cc(NC3CCCC3)c(C(=O)N[C@H]3CC[C@H](CN4CCC(CCc5ccc(C6CCC(=O)NC6=O)cc5)CC4)CC3)cn2)c1` (stereo partly drawn) [P-43] was tested, and the “ALE THP1 HTRF YMIN” value was 14.7% and the EC50 was 0.312 µM.
`N#Cc1cnc2c(cnn2-c2cc(NC3CCCC3)c(-c3cn([C@H]4CC[C@H](CN5CCC(CNc6ccc(C7CCC(=O)NC7=O)cc6)CC5)CC4)nn3)cn2)c1` (stereo partly drawn) [P-44] was tested, and the “ALE THP1 HTRF YMIN” value was 38.8% and the EC50 was 0.172 µM.
With `N#Cc1cnc2c(cnn2-c2cc(NC3CCCC3)c(-c3cn([C@H]4CC[C@H](C(=O)N5CCC(C(=O)Nc6ccc(N7CCC(=O)NC7=O)cc6)CC5)CC4)nn3)cn2)c1` [P-45, 1-[4-[4-[6-(5-Cyanopyrazolo[3,4-b]pyridin-1-yl)-4-(cyclopentylamino)-3-pyridyl]triazol-1-yl]cyclohexanecarbonyl]-N-[4-(2,4-dioxohexahydropyrimidin-1-yl)phenyl]piperidine-4-carboxamide] the “ALE THP1 HTRF YMIN” value was 11.4% and the EC50 was 0.028 µM.
In the case of `N#Cc1cnc2c(cnn2-c2cc(NC3CCCC3)c(C(=O)NC3CCC(CN4CCC(C(=O)Nc5ccc(C6CCC(=O)NC6=O)cc5)C(F)(F)C4)CC3)cn2)c1` (stereo not drawn) [P-46], the “ALE THP1 HTRF YMIN” value is reported as 31.5% and the EC50 is reported as 0.074 µM.
With `N#Cc1cnc2c(cnn2-c2cc(NC3CCCC3)c(-c3cn([C@H]4CC[C@H](CN5CCC(C(=O)Nc6ccc(C7CCC(=O)NC7=O)cc6)CC5)CC4)nn3)cn2)c1` (stereo partly drawn) [P-47] the “ALE THP1 HTRF YMIN” value was 14.1% and the EC50 was 0.11 µM.
`N#Cc1cnc2c(ccn2-c2cc(NC3CCCC3)c(C(=O)NC3CCC(CCN4CCN(c5ccc(C6CCC(=O)NC6=O)cc5)CC4)CC3)cn2)c1` (stereo not drawn) [P-48] was tested, and the “ALE THP1 HTRF YMIN” value was 12.0% and the EC50 was 0.099 µM.
With `N#Cc1cnc2c(ccn2-c2cc(NC3CC3)c(C(=O)NC3CCC(CCN4CCN(c5ccc(C6CCC(=O)NC6=O)cc5)CC4)CC3)cn2)c1` (stereo not drawn) [P-49] the “ALE THP1 HTRF YMIN” value was 10.9% and the EC50 was 0.021 µM.
With `CC(C)Nc1cc(-n2ncc3cc(C#N)cnc32)ncc1C(=O)NC1CCC(CCN2CCN(c3ccc(C4CCC(=O)NC4=O)cc3)CC2)CC1` (stereo not drawn) [P-50] the “ALE THP1 HTRF YMIN” value was 7.5% and the EC50 was 0.011 µM.
With `N#Cc1cnc2c(cnn2-c2cc(NC3CC3)c(C(=O)NC3CCC(CCN4CCN(c5ccc(C6CCC(=O)NC6=O)cc5)CC4)CC3)cn2)c1` (stereo not drawn) [P-51] the “ALE THP1 HTRF YMIN” value was 7.9% and the EC50 was 0.009 µM.
With `N#Cc1cnc2c(cnn2-c2cc(NC3CCCC3)c(C(=O)NC3CCC(CCN4CCC(Nc5cccc(C6CCC(=O)NC6=O)c5)CC4)CC3)cn2)c1` (stereo not drawn) [P-52] the “ALE THP1 HTRF YMIN” value was 13.4% and the EC50 was 0.039 µM.
With `N#Cc1cnc2c(c1)ncn2-c1cc(NC2CCCC2)c(C(=O)N[C@H]2CC[C@H](CN3CCN(c4ccc5c(c4)C(=O)N(C4CCC(=O)NC4=O)C5=O)CC3)CC2)cn1` (stereo partly drawn) [P-53] the “ALE THP1 HTRF YMIN” value was 37.6% and the EC50 was 1.89 µM.
`N#Cc1cnc2c(cnn2-c2cc(NC3CCCC3)c(-c3cn([C@H]4CC[C@H](CCN5CCN(c6ccc(C7CCC(=O)NC7=O)cc6)CC5)CC4)nn3)cn2)c1` (stereo partly drawn) [P-54, 1-(4-(Cyclopentylamino)-5-(1-((1r,4r)-4-(2-(4-(4-(2,6-dioxopiperidin-3-yl)phenyl)piperazin-1-yl)ethyl)cyclohexyl)-1H-1,2,3-triazol-4-yl)pyridin-2-yl)-1H-pyrazolo[3,4-b]pyridine-5-carbonitrile] was tested, and the “ALE THP1 HTRF YMIN” value was 14.6% and the EC50 was 0.031 µM.
`N#Cc1cnc2c(cnn2-c2cc(NC3CCCC3)c(-n3cc([C@H]4CC[C@H](CN5CCN(c6ccc7c(c6)C(=O)N(C6CCC(=O)NC6=O)C7)CC5)CC4)nn3)cn2)c1` (stereo partly drawn) [P-55, 1-[4-(Cyclopentylamino)-5-[4-[4-[[4-[2-(2,6-dioxo-3-piperidyl)-3-oxo-isoindolin-5-yl]piperazin-1-yl]methyl]cyclohexyl]triazol-1-yl]-2-pyridyl]pyrazolo[3,4-b]pyridine-5-carbonitrile] was tested, and the “ALE THP1 HTRF YMIN” value was 10.3% and the EC50 was 0.015 µM.
With `N#Cc1cnc2c(cnn2-c2cc(NC3CCCC3)c(C(=O)NC3CCC(CCN4CCC(c5ccc(C6CCC(=O)NC6=O)cc5)CC4)CC3)cn2)c1` (stereo not drawn) [P-56] the “ALE THP1 HTRF YMIN” value was 7.7% and the EC50 was 0.426 µM.
In the case of `C[C@@H]1CN(c2ccc(C3CCC(=O)NC3=O)cc2)C[C@H](C)N1CCC1CCC(NC(=O)c2cnc(-n3ncc4cc(C#N)cnc43)cc2NC2CCCC2)CC1` (stereo partly drawn) [P-57], the “ALE THP1 HTRF YMIN” value is reported as 9.7% and the EC50 is reported as 0.194 µM.
In the case of `C[C@@H]1CN(c2ccc(C3CCC(=O)NC3=O)cc2)CCN1CCC1CCC(NC(=O)c2cnc(-n3ncc4cc(C#N)cnc43)cc2NC2CCCC2)CC1` (stereo partly drawn) [P-59], the “ALE THP1 HTRF YMIN” value is reported as 8.5% and the EC50 is reported as 0.107 µM.
With `CN(CC1CCC(NC(=O)c2cnc(-n3ncc4cc(C#N)cnc43)cc2NC2CCCC2)CC1)C1CCN(c2ccc(C3CCC(=O)NC3=O)cc2)CC1` (stereo not drawn) [P-60] the “ALE THP1 HTRF YMIN” value was 11.3% and the EC50 was 0.945 µM.
`N#Cc1cnc2c(cnn2-c2cc(NC3CCCC3)c(C(=O)N[C@H]3CC[C@H](CCN4CCN(c5ccc6c(c5)C(=O)N(C5CCC(=O)NC5=O)C6=O)CC4)CC3)cn2)c1` (stereo partly drawn) [P-61] was tested, and the “ALE THP1 HTRF YMIN” value was 9.2% and the EC50 was 0.101 µM.
In the case of `C[C@H]1CN(c2ccc(C3CCC(=O)NC3=O)cc2)CCN1CCC1CCC(NC(=O)c2cnc(-n3ncc4cc(C#N)cnc43)cc2NC2CCCC2)CC1` (stereo partly drawn) [P-62], the “ALE THP1 HTRF YMIN” value is reported as 6.6% and the EC50 is reported as 0.07 µM.
With `N#Cc1cnc2c(cnn2-c2cc(N[C@H]3CCC[C@@H]3O)c(C(=O)NC3CCC(CCN4CCN(c5ccc(C6CCC(=O)NC6=O)cc5)CC4)CC3)cn2)c1` (stereo partly drawn) [P-63] the “ALE THP1 HTRF YMIN” value was 8.3% and the EC50 was 0.006 µM.
`CC(C)CNc1cc(-n2ncc3cc(C#N)cnc32)ncc1C(=O)NC1CCC(CCN2CCN(c3ccc(C4CCC(=O)NC4=O)cc3)CC2)CC1` (stereo not drawn) [P-64] was tested, and the “ALE THP1 HTRF YMIN” value was 10.1% and the EC50 was 0.03 µM.
With `CC(F)(F)CNc1cc(-n2ncc3cc(C#N)cnc32)ncc1C(=O)NC1CCC(CCN2CCN(c3ccc(C4CCC(=O)NC4=O)cc3)CC2)CC1` (stereo not drawn) [P-65] the “ALE THP1 HTRF YMIN” value was 7.3% and the EC50 was 0.01 µM.
In the case of `N#Cc1cnc2c(cnn2-c2cc(N[C@H]3CCC[C@H]3O)c(C(=O)NC3CCC(CCN4CCN(c5ccc(C6CCC(=O)NC6=O)cc5)CC4)CC3)cn2)c1` (stereo partly drawn) [P-66], the “ALE THP1 HTRF YMIN” value is reported as 11.2% and the EC50 is reported as 0.006 µM.
For `C[C@H]1CN(c2ccc(C3CCC(=O)NC3=O)cc2)C[C@H](C)N1CCC1CCC(NC(=O)c2cnc(-n3ncc4cc(C#N)cnc43)cc2NC2CCCC2)CC1` (stereo partly drawn) [P-67], the “ALE THP1 HTRF YMIN” value was 9.3% and the EC50 was 0.034 µM.
In the case of `C[C@@H]1CN(c2ccc(C3CCC(=O)NC3=O)cc2)C[C@@H](C)N1CCC1CCC(NC(=O)c2cnc(-n3ncc4cc(C#N)cnc43)cc2NC2CCCC2)CC1` (stereo partly drawn) [P-68], the “ALE THP1 HTRF YMIN” value is reported as 19.3% and the EC50 is reported as 0.136 µM.
With `N#Cc1cnc2c(cnn2-c2cc(NC3CCCC3)c(C(=O)N[C@H]3CC[C@H](CN4CCC(COc5ccc(C6CCC(=O)NC6=O)cc5)CC4)CC3)cn2)c1` (stereo partly drawn) [P-69] the “ALE THP1 HTRF YMIN” value was 15.4% and the EC50 was 0.417 µM.
For `N#Cc1cnc2c(cnn2-c2cc(Nc3cnn(CC(F)(F)F)c3)c(C(=O)NC3CCC(CCN4CCN(c5ccc(C6CCC(=O)NC6=O)cc5)CC4)CC3)cn2)c1` (stereo not drawn) [P-70], the “ALE THP1 HTRF YMIN” value was 8.2% and the EC50 was 0.003 µM.
With `CCNc1cc(-n2ncc3cc(C#N)cnc32)ncc1C(=O)NC1CCC(CCN2CCN(c3ccc(C4CCC(=O)NC4=O)cc3)CC2)CC1` (stereo not drawn) [P-71] the “ALE THP1 HTRF YMIN” value was 10.9% and the EC50 was 0.008 µM.
`N#Cc1cnc2c(cnn2-c2cc(NC3CC3)c(C(=O)NC3CCC(CCN4CCC(c5ccc(C6CCC(=O)NC6=O)cc5)CC4)CC3)cn2)c1` (stereo not drawn) [P-72] was tested, and the “ALE THP1 HTRF YMIN” value was 9.5% and the EC50 was 0.005 µM.
`O=C1CCC(c2ccc(N3CCN(CCC4CCC(NC(=O)c5cnc(Nc6ccc7ncsc7c6)cc5NC5CCCC5)CC4)CC3)cc2)C(=O)N1` (stereo not drawn) [P-73] was tested, and the “ALE THP1 HTRF YMIN” value was 8.1% and the EC50 was 0.058 µM.
`N#Cc1cnc2c(cnn2-c2cc(NC3CCOCC3)c(C(=O)NC3CCC(CCN4CCN(c5ccc(C6CCC(=O)NC6=O)cc5)CC4)CC3)cn2)c1` (stereo not drawn) [P-74] was tested, and the “ALE THP1 HTRF YMIN” value was 9.4% and the EC50 was 0.008 µM.
With `N#Cc1cnn2c(-c3cc(NC4CCCC4)c(C(=O)NC4CCC(CCN5CCN(c6ccc(C7CCC(=O)NC7=O)cc6)CC5)CC4)cn3)ccc2c1` (stereo not drawn) [P-75] the “ALE THP1 HTRF YMIN” value was 11.4% and the EC50 was 0.062 µM.
With `CC1(Nc2cc(-n3ncc4cc(C#N)cnc43)ncc2C(=O)NC2CCC(CCN3CCN(c4ccc(C5CCC(=O)NC5=O)cc4)CC3)CC2)CC1` (stereo not drawn) [P-76] the “ALE THP1 HTRF YMIN” value was 8.3% and the EC50 was 0.007 µM.

— patent US20240109881A1, “Heteroaryl Compounds as Ligand Directed Degraders of IRAK4” (Bristol-Myers Squibb Company, priority 2022, published 2024)
